Results as given in US20260315431A1, “NANOMATERIAL ENCAPSULATED BIOFILM INHIBITORS FOR DENTAL CARIES TREATMENT” (THE UAB RESEARCH FOUNDATION, priority 2023, published 2026).
“Also recorded” adds a separate entry of the source. Marks after values point to notes of the source that are not given here.

System: S. mutans UA159
Experiment: Gnotobiotic rat model of dental caries (HEBI / HA5 study, Example 1)
Assay type: in vivo, Fischer 344 rats infected with S. mutans UA159
Design: key to Buccal Mean Caries Scores (±SEM) E / Buccal Mean Caries Scores (±SEM) Ds / Buccal Mean Caries Scores (±SEM) Dm / Buccal Mean Caries Scores (±SEM) Dx / Sulcal Mean Caries Scores (± SEM) E / Sulcal Mean Caries Scores (± SEM) Ds / Sulcal Mean Caries Scores (± SEM) Dm / Sulcal Mean Caries Scores (± SEM) Dx / Proximal Mean Caries Scores (± SEM) E: caries scores by the method of Keyes
Conditions: for CFU/mL BAP: Blood Agar Plates; for CFU/mL BAP / CFU/mL MS / Buccal Mean Caries Scores (±SEM) Dx / Sulcal Mean Caries Scores (± SEM) Dx / Buccal Mean Caries Scores (±SEM) Dm / Sulcal Mean Caries Scores (± SEM) Dm / Buccal Mean Caries Scores (±SEM) Ds / Sulcal Mean Caries Scores (± SEM) Ds / Buccal Mean Caries Scores (±SEM) E / Proximal Mean Caries Scores (± SEM) E / Sulcal Mean Caries Scores (± SEM) E: 100 μM (NaF 250 ppm), 4 weeks; for CFU/mL MS: Mitis Salivarius agar; for Buccal Mean Caries Scores (±SEM) Dx / Sulcal Mean Caries Scores (± SEM) Dx: dentinal extensive; for Buccal Mean Caries Scores (±SEM) Dx / Sulcal Mean Caries Scores (± SEM) Dx / Buccal Mean Caries Scores (±SEM) Dm / Sulcal Mean Caries Scores (± SEM) Dm / Buccal Mean Caries Scores (±SEM) Ds / Sulcal Mean Caries Scores (± SEM) Ds / Buccal Mean Caries Scores (±SEM) E / Proximal Mean Caries Scores (± SEM) E / Sulcal Mean Caries Scores (± SEM) E: topical twice daily; for Buccal Mean Caries Scores (±SEM) Dm / Sulcal Mean Caries Scores (± SEM) Dm: dentinal moderate; for Buccal Mean Caries Scores (±SEM) Ds / Sulcal Mean Caries Scores (± SEM) Ds: dentinal slight; for Buccal Mean Caries Scores (±SEM) E / Proximal Mean Caries Scores (± SEM) E / Sulcal Mean Caries Scores (± SEM) E: enamel
Description: Reduction of S. mutans virulence in vivo by HA5 or HEBI. The effects of compound HA5 and HEBI on S. mutans virulence were evaluated using a well-established gnotobiotic rat model of dental caries 67. Hydrogel microparticles with no drug were used to ensure that the observed anti-virulence activity observed with HEBI was not related to the hydrogel material. The standard NaF (250 ppm) was included as a positive control. A (vehicle+infection only) group was included as a negative control. All rats in the experimental groups and control groups were colonized with S. mutans UA159. […] Similar reductions in caries scores were also observed in proximal enamel caries scores (Table 3). An evaluation of the effect of the treatment on proximal dentinal scores was unable to be performed as there were no significant proximal dentinal lesions for the control and treated groups in this study. […] The observed reduction in caries scores by HA5 and HEBI were similar with HEBI displaying slightly better in vivo activity, possibly due to the pH-dependent slow release. The observed reduction in caries scores by HA5 or HEBI is lower than the 250 ppm NaF treatment. However, it should be noted that the concentration of NaF (250 ppm=5.95 mM) is about 59-fold higher than HA5 (100 μM). At the end of the study, the animals were euthanized, their mandibles excised for microbiological analysis of plaque samples on MS agar plates and BAP and for scoring of caries by the method of Keyes^68 to determine the bacterial colonization. […] All in vivo experimental protocols were approved by the University of Alabama at Birmingham Institutional Animal Care and Use Committee (protocol No: IACUC-20047). The methods were carried out in accordance with the relevant guidelines and regulations.
Rat model of dental caries. In vivo studies of colonization and virulence of S. mutans were evaluated using a previously reported rat model of dental caries^71. Offspring of gnotobiotic Fischer 344 rats used in this experiment were bred and maintained in trexler isolators. Male and female rat pups were removed from isolators at 20 days of age and randomly assigned into 5 treatment groups of 5 rats/group in cages with filter tops. Rats were then infected with S. mutans UA159 strain by oral swabbing daily for four consecutive days with a fresh overnight culture of S. mutans UA159. Rats were provided with caries promoting Teklad Diet 305 containing […] (Harlan Laboratories, Inc., Indianapolis, IN) and sterile drinking water ad libitum. Oral swabs were taken 5 days post-infection and plated on Todd Hewitt (TH) agar plates and incubated at 37° C. in an environment of 5% CO2 in the air to confirm colonization. Rats were weighed at weaning and at the termination of the experiment. One-week post-infection, the molars of the rats were treated topically twice daily for 4 weeks with the test compounds using camel-hair brushes. The five treatment groups used in this study were: 1) HEBI (100 μM); 2) HA5 (100 μM); 3) hydrogel encapsulated PBS (no drug) containing 0.1% DMSO (negative control), 4) 250 ppm NaF (positive control) and 5) infected untreated group (negative control). Drinking water was withheld for 60 min following each treatment with the compound. Animals were weighed at weaning and at the termination of the experiment. On day 60, the rats were sacrificed using CO2 followed by cervical dislocation or bilateral thoracotomy. The mandibles were surgically removed and cleaned of excess tissue to assess the level of bacteria present and the extent of caries formation. The right mandibles from each rat were placed in a tube containing phosphate buffer (3 mL), placed on ice and sonicated (10 sec) to release bacteria from the molars. Each sample was serially diluted, plated on blood agar plates (BAP) and mitis-salivarius (MS) agar plates and incubated in an environment of 5% CO2 at 37° C. to quantify the level of total bacteria and S. mutans present in the plaque. […]

## [F-].[Na+] [NaF, reference compound]
  CFU/mL BAP: 4.0 ± 0.9 CFU/mL (×10^6)
  CFU/mL MS: 3.4 ± 0.5 CFU/mL (×10^6)
  Buccal Mean Caries Scores (±SEM) Dx: 0.0 ± 0.0
  Sulcal Mean Caries Scores (± SEM) Dx: 1.0 ± 0.3
  Buccal Mean Caries Scores (±SEM) Dm: 1.0 ± 0.8
  Sulcal Mean Caries Scores (± SEM) Dm: 4.6 ± 0.2
  Buccal Mean Caries Scores (±SEM) Ds: 2.4 ± 0.8
  Sulcal Mean Caries Scores (± SEM) Ds: 11.2 ± 0.4
  Buccal Mean Caries Scores (±SEM) E: 5.0 ± 0.7
  Proximal Mean Caries Scores (± SEM) E: 1.2 ± 0.8
  Sulcal Mean Caries Scores (± SEM) E: 14.2 ± 0.7

## O=C1/C(=C/c2cc(O)c(O)cc2O)Oc2ccccc21 [HA5, 2-[(2′,4′,5′-Trihydroxyphenyl)methylidene]-2,3-dihydro-1-benzofuran-3-one]
4-week treatment, 100 μM
  effect on bacterial colonization: not significant; also recorded: without affecting the bacterial colonization significantly
  reduction in caries scores: significant reduction in buccal, sulcal, and proximal dental caries scores
  CFU/mL BAP: 3.0 ± 1.0 CFU/mL (×10^6)
  CFU/mL MS: 2.5 ± 0.8 CFU/mL (×10^6)
  Buccal Mean Caries Scores (±SEM) Dx: 2.0 ± 0.7
  Sulcal Mean Caries Scores (± SEM) Dx: 4.4 ± 0.9
  Buccal Mean Caries Scores (±SEM) Dm: 3.8 ± 0.2
  Sulcal Mean Caries Scores (± SEM) Dm: 8.8 ± 0.9
  Buccal Mean Caries Scores (±SEM) Ds: 6.0 ± 0.4
  Sulcal Mean Caries Scores (± SEM) Ds: 16.2 ± 0.4
  Buccal Mean Caries Scores (±SEM) E: 11.0 ± 0.3
  Proximal Mean Caries Scores (± SEM) E: 4.0 ± 0.0
  Sulcal Mean Caries Scores (± SEM) E: 22.0 ± 0.6
